According to article PMC6278385, “Preclinical Pharmacokinetics of C118P, a Novel Prodrug of Microtubules Inhibitor and Its Metabolite C118 in Mice, Rats, and Dogs” (Molecules, 2018):
Read-outs that look alike come from different tables or passages of the source.

Experiments:
[1] = Stability in plasma with EDTA as anticoagulant; assay type: in vitro ADME
[2] = Tandem two-compartment PK model of C118P and C118; assay type: in vivo; conditions: dog; for K12 / K21 / V1: two-compartmental model parameter (Table S1); for K10: two-compartmental model, K10 supposed to be transformation rate of C118P into C118, simulated
Excerpt: Due to the rapid transformation of C118P into C118, there is no direct way to calculate the rate of transformation, thus a two-compartment model with metabolism involved was developed (Figure S3). The transformation rate from C118P into C118 was simulated by fitting the two-serial data of prodrug C118P and C118 in rats and dogs.
3. The pharmacokinetic profile of C118P and C118 was simulated by two compartmental models. To simplify the model, the excretion rate of C118P from central compartment was supposed to be zero. In this model, both C118P and C118 were described by two-compartmental model, with elimination rate of k(0,3) for C118. The connection between C118P and C118 is by the uniflow of transformation rate of k(3,1) since the metabolism of C118P to C118 is irreversible(Figure S3).
Figure S3. The pharmacokinetic model of C118P and C118 in rat after i.v C118P. ex1: the injection dose of C118P, s1: concentration of C118 in central compartment. s2: concentration of C118 in central compartment, q1 and q3 represent the central compartment of C118P and C118, respectively.
The q2 and q4 represent the peripheral compartment of C118P and C118, respectively. k(0,3) represents the elimination rate of C118 from central compartment. k(3,1) represents the transformation rate of C118P to C118. k(2,1) and k(4,3) represent the distribution rate of C118P and C118 from central compartment to peripheral compartment. k(1,2) and k(3,4) represent the return rate of C118P and C118 from peripheral compartment to central compartment.
For prodrug pharmacokinetic prediction, the transformation of prodrug to the active drug should be studied in different system to get the right data. With the help of modeling, the transformation ratio of C118P to C118 was calculated by a tandem two-compartment model (SAAMII, University of Washington). In simulation study, the initial parameters are very important for accurate prediction.
The initial compartmental model parameters of rat and dog were first evaluated by Winnonlin using two-compartmental model at low dose, with intravenous for C118P and extra vessel for C118 since […]
(1 picture or pasted object on this page, not shown here)
C118 was transformed from C118P. The initial parameters used in the simulation were listed in Table S1. Using these parameters, the simulation of PK profiles of rat and dog are well fit to the data from in vivo at higher dose (Figure S4). The simulation of C118P and C118, the transformation rate of C118P to C118 is calculated and transformation ratio (k) is about 18.3671/h and12.588 1/h for rats and dogs, respectively.
Figure S4. The simulation of PK profile at 20 mg/kg in rat(A) and 6 mg/kg(B) in dog based on initial parameters calculated by Winnonlin. (s1 represent the simulated data for C118 and s2 represent the simulated data for C118P, plasma 1 represent the experimental data for C118 and plasma 2 represent the experimental data for C118P.) […]

[3] = Plasma protein binding by ultrafiltration; assay type: in vitro ADME, Sprague-Dawley rats; conditions: Sprague-Dawley, rat plasma, read-out: fu (fraction unbound);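 also: fu expressed in percent not as a fraction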
Protocol: Both C118P and C118 were stable in the plasma with EDTA as anticoagulant. The non-specific binding to the ultrafilter membrane was negligible. The extent of plasma protein binding was reported as a fraction unbound (fu, %) value which was calculated using the formula fu = PF/TC × 100%, where TC is test compound (C118P or C118) concentration in sample before ultrafiltration, and PF is the test compound concentration in the ultrafiltrate (Table 1).
Plasma protein binding of C118P and C118 were determined by ultrafiltration at four concentrations (C118P: 400, 4000, 40,000, and 400,000 ng/mL, C118: 20, 200, 2000, and 20,000 ng/mL) in pooled plasma from Sprague-Dawley rats, beagle dogs, and humans. Stock solutions of C118P and C118 dissolved in methanol were diluted with blank plasma to achieve the test concentrations (the methanol volume is less than 10% of the plasma). The plasma was incubated for 1 h in a water bath at 37 °C. The total concentration of C118P and C118 of spiked plasma (TC) was analyzed by previously described methods. Ultrafiltration was performed with activated high speed centrifugal tubes (Millipore, Burlington, MA, USA). Plasma samples (0.4 mL) were added to the upper layer of the high speed centrifugal tubes, and then centrifuged at 12,000 g for 10 min. The concentration of unbound C118P and C118 in filtrate (PF) was similarly determined by the previously described methods. The percentage of free fraction (fu) of C118P and C118 was calculated as follows: fu = (PF/TC) × 100%.

[4] = PK in dogs after i.v. C118P; assay type: in vivo, beagle dogs; conditions: plasma; for concentration at 2 min / AUC(0-inf) / half-life / clearance: both sexes, beagle, dog; for concentration at 2 min: read-out: C2min; for AUC(0-inf) / half-life / clearance: iv
Protocol: The beagle dogs were purchased from Nanjing Ya Dong experimental animal research center. Twelve beagle dogs with half males and half females were divided randomly into two groups. C118P was dissolved in saline to different concentrations for intravenous administration. After fasting overnight with free access to water, the dogs were administered a single intravenous dose of 1 or 3 mg/kg C118P. After a one-week wash-out period, the group of 1 mg/kg were administered another single intravenous dose of 6 mg/kg C118P. Blood samples (approximately 1 mL) were collected in EDTA-coated tubes at times of 0, 2, 5, 10, 20, 40 min, 1, 2, 4, 8, 12 and 24 h. Plasma was prepared by centrifugation at 8000 rpm for 5 min, and the plasma samples were then prepared and determined by the method described above.
The area under the plasma-concentration-versus-time curve from 0 to infinite (AUC0-inf), the elimination half-life (t1/2), the systemic plasma clearance (CL) and the volume of distribution (V) were calculated by non-compartmental analysis with WinNonlin software v6.3 (Pharsight Corporation, St. Louis, MO 63144, USA) from the plasma concentration data of C118P and C118, respectively. The instantaneous concentrations after intravenous to rats (C30s) or dogs (C2min) were obtained directly from the observed data.

[5] = dogs, i.v. C118P 1 mg/kg, n = 6
[6] = dogs, i.v. C118P 3 mg/kg, n = 6
[7] = dogs, i.v. C118P 6 mg/kg, n = 6
[8] = in vivo, dogs, i.v. C118P 1 mg/kg, n = 6
[9] = in vivo, dogs, i.v. C118P 3 mg/kg, n = 6
[10] = in vivo, dogs, i.v. C118P 6 mg/kg, n = 6

In the case of `COc1cc(OC)cc(-c2nc[nH]c2-c2ccc(OC)c(O)c2)c1` [C118], the stability in plasma [1] is reported as “stable”, the K12 [2] is reported as 1.3247 h⁻¹ and the K21 [2] is reported as 0.2110 h⁻¹. For the same molecule, the V1 [2] was 0.2205 L/kg, the K10 [2] was 3.1444 h⁻¹ and the fraction unbound at 1 h, 200 ng/mL ([3]; pooled plasma, C118 200 ng/mL) was 0.077 ± 0.008. It also gave a fraction unbound at 1 h, 2000 ng/mL ([3]; pooled plasma, C118 2000 ng/mL) of 0.065 ± 0.003, a fraction unbound at 1 h, 20000 ng/mL ([3]; pooled plasma, C118 20,000 ng/mL) of 0.055 ± 0.001 and a concentration at 2 min ([4]; intravenous, dogs, i.v. C118P 1 mg/kg, n = 6) of 252 ± 70.5 ng/mL. For the same molecule, the concentration at 2 min ([4]; intravenous, dogs, i.v. C118P 3 mg/kg, n = 6) was 861 ± 259 ng/mL, the concentration at 2 min ([4]; intravenous, dogs, i.v. C118P 6 mg/kg, n = 6) was 1700 ± 509 ng/mL and the AUC(0-inf) [4, 5] was 214 ± 79 ng·h/mL. It also gave a half-life [4, 5] of 29.4 ± 10.8 min, an AUC(0-inf) [4, 6] of 910 ± 295 ng·h/mL and a half-life [4, 6] of 63 ± 16.2 min. For the same molecule, the AUC(0-inf) [4, 7] was 1830 ± 320 ng·h/mL, the half-life [4, 7] was 50.4 ± 15 min and the clearance ([4]; in vivo, compared with extrapolated CLH, read-out: Observed CL) was 54 mL/min/kg.

For `COc1cc(OC)cc(-c2nc[nH]c2-c2ccc(OC)c(OP(=O)([O-])[O-])c2)c1.[Na+].[Na+]` [C118P], the stability in plasma [1] was “stable”, the K12 [2] was 1.844 h⁻¹ and the K21 [2] was 4.727 h⁻¹. For the same molecule, the V1 [2] was 0.05097 L/kg, the K10 [2] was 12.558 h⁻¹ and the fraction unbound at 1 h, 400 ng/mL ([3]; C118P 400 ng/mL) was 0.032 ± 0.001. It also gave a fraction unbound at 1 h, 4000 ng/mL ([3]; C118P 4000 ng/mL) of 0.029 ± 0.001, a fraction unbound at 1 h, 40000 ng/mL ([3]; C118P 40,000 ng/mL) of 0.024 ± 0.001 and a fraction unbound at 1 h, 400000 ng/mL ([3]; C118P 400,000 ng/mL) of 0.122 ± 0.006. For the same molecule, the AUC(0-inf) [4, 8] was 1700 ± 346 ng·h/mL, the half-life [4, 8] was 13.2 ± 5.4 min and the clearance ([4]; in vivo, dogs, i.v. C118P 1 mg/kg, n = 6, read-out: CL (converted)) was 10.2 mL/min/kg. For the same molecule, the AUC(0-inf) [4, 9] was 5300 ± 1700 ng·h/mL, the half-life [4, 9] was 35.4 ± 9.6 min and the clearance ([4]; in vivo, dogs, i.v. C118P 3 mg/kg, n = 6, read-out: CL (converted)) was 10.1 mL/min/kg. The AUC(0-inf) [4, 10] was 8530 ± 1550 ng·h/mL, the half-life [4, 10] was 23.4 ± 7.2 min and the clearance ([4]; in vivo, dogs, i.v. C118P 6 mg/kg, n = 6, read-out: CL (converted)) was 12.1 mL/min/kg. For the same molecule, the concentration at 2 min [4, 8] was 12300 ng/mL, the concentration at 2 min [4, 9] was 34700 ng/mL and the concentration at 2 min [4, 10] was 64200 ng/mL. For the same molecule, the V [4, 5] was 0.1817 ± 0.0513 L/kg, the V [4, 6] was 0.5092 ± 0.162 L/kg and the V [4, 7] was 0.3985 ± 0.0871 L/kg.
